In the experiment the target is T1, Human TRPV3 (Homo sapiens, UniProt Q8NET8).
T1 construct: expressed in transfected cells; host or cells: CHO cells (selected with G-418)
T1 sequence (Q8NET8 1-790): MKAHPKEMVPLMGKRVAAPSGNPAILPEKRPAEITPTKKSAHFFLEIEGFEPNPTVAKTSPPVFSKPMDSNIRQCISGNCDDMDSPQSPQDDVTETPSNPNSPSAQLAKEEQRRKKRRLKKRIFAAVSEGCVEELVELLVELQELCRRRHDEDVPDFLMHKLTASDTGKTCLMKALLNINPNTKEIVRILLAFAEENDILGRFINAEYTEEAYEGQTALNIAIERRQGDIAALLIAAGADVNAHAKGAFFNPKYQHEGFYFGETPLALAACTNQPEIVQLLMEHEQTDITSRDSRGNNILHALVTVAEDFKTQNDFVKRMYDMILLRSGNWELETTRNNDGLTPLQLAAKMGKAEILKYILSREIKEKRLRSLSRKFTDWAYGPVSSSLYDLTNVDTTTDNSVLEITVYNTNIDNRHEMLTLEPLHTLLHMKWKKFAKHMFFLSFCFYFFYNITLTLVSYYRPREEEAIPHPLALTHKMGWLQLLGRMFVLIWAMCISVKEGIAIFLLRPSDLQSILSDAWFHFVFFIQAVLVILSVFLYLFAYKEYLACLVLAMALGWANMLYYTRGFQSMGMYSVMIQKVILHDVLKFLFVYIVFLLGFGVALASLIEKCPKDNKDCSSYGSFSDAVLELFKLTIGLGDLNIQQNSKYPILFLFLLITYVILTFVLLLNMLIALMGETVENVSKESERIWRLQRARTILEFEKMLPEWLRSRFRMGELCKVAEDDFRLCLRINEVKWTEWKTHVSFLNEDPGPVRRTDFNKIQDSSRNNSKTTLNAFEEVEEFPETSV
Nature of the experiment: Screening for TRPV3 antagonist using the 45Calcium uptake assay (inhibition of 2-APB induced cellular uptake of radioactive calcium). The class given is cell-based. As to conditions: Human TRPV3 expressing CHO cells, 2-APB 500 μM; for inhibition at 1 µM / inhibition at 10 µM: CHO; for inhibition at 1 µM / Percentage inhibition at 1.0 μM: 1.0 μM test compound; for inhibition at 1 µM: read-out: Percentage inhibition at 1.0 μM; for inhibition at 10 µM: read-out: Percentage inhibition at 10.0 μM. From the text:
The illustrative examples of the present invention are screened for TRPV3 activity according to a modified procedure described in Tóth, A., Kedei, N., Wang, Y. and Blumberg, P. M. Life Sciences (2003), 73, 487-498. The screening of the compounds can be carried out by other methods and procedures known to a person skilled in the art. Such screening methods may be found in (a) Hu, H.-Z. et al. J. Biol. Chem. (2004), 279, 35741-35747; (b) Smith, G. D. et al. Nature (2002), 418, 186-190; (c) Peier, A. M. et al. Science (2002), 296, 2046-2049.
Screening for TRPV3 Antagonist Using the ^45Calcium Uptake Assay:
The inhibition of TRPV3 receptor activation was followed as inhibition of 2-aminoethxydiphenylborate (2-APB) induced cellular uptake of radioactive calcium. Test compounds were dissolved in dimethyl sulfoxide (DMSO) to prepare 20 mM stock solution and then diluted using plain medium with DMEM/F-12 containing 1.8 mM CaCl2 to get desired concentration. Final concentration of DMSO in the reaction was 0.5% (v/v). Human TRPV3 expressing CHO cells were grown in DMEM/F-12 medium with 10% FBS, 1% penicillin-streptomycin solution, 400 μg/ml of G-418. Cells were seeded 24 h prior to the assay in 96 well plates so as to get ˜50,000 cells per well on the day of experiment. Cells were treated with test compounds for 10 minutes followed by addition of 2-APB at a final concentration of 500 μM and 5 μCi/ml ^45Ca^+2 for 4 minutes. Cells were washed and lysed using buffer containing 1% Triton X-100, 0.1% deoxycholate and 0.1% SDS. Radioactivity in the lysate was measured in Packardt Top count after addition of liquid scintillant. Concentration response curves were plotted as a % of maximal response obtained in the absence of test antagonist. IC50 value was calculated from concentration response curve by nonlinear regression analysis using GraphPad PRISM software.
Percentage inhibition at concentrations of 1.0 μM and 10.0 μM are given in the table along with IC50 (nM) values for selected examples.

Consider 20 compounds from US8349846B2, “Fused pyrimidine derivatives as TRPV3 modulators” (Glenmark Pharmaceuticals, S.A., priority 2008, dated 2013).

Counter-ions that a name gives are not always drawn.

Consider `COc1cccc(/C=C/c2nc3ccccn3c(=O)c2-c2cccc(O)c2)c1OC1CCCC1` [Example 25, 2-{(E)-2-[2-(Cyclopentyloxy-3-methoxy)phenyl]vinyl}-3-(3-hydroxy)phenyl-4H-pyrido-[1,2-a]-pyrimidin-4-one], for which the inhibition (as a rule, how much of the control response was suppressed) at 1 µM worked out at 20.7% and the IC50 (in general, the concentration at which inhibition is half-maximal) was in the range of 1000 to 2500 nM. For the same compound, the inhibition at 10 µM (10.0 μM test compound) amounted to 93.1%.
The matching figures for `CCCCCOc1c(/C=C/c2nc3ccccn3c(=O)c2-c2ccc(C#N)cc2)cccc1OC` [Example 12, 4-{2-[(E)-2-[3-Methoxy-2-pentyloxyphenyl)vinyl]-4-oxo-4H-pyrido[1,2-a]pyrimidin-3-yl}benzonitrile]: 87.9%, less than 500 nM and 96.5%.
As for `O=c1c(-c2ccc(C(F)(F)F)cc2)c(/C=C/c2cccs2)nc2ccccn12` [Example 3, 2-[(E)-2-(2-Thienyl)vinyl]-3-[4-(trifluoromethyl)phenyl]-4H-pyrido[1,2-a]pyrimidin-4-one], the inhibition at 1 µM worked out at 14.4% and the half-maximal inhibitory concentration (IC50) was in the range of 1000 to 2500 nM. The inhibition at 10 µM (10.0 μM test compound) amounted to 77.9%.
In the case of `COc1cccc(/C=C/c2nc3ccccn3c(=O)c2-c2ccncc2)c1OC1CCCC1` [Example 35, 2-{(E)-2-[2-(Cyclopentyloxy)-3-methoxyphenyl]vinyl}-3-pyridin-4-yl-4H-pyrido[1,2-a]-pyrimidin-4-one], the inhibition at 1 µM was 18.4%. In addition, the inhibition at 10 µM (10.0 μM test compound) was determined as 63.3%.
In the same order, the values of `COc1cccc(/C=C/c2nc3c(C)cccn3c(=O)c2-c2ccc(C(F)(F)F)cc2)c1OC1CCCC1` [Example 40, 2-{(E)-2-[(2-Cyclopentyloxy-3-methoxy)phenyl]vinyl}-9-methyl-3-(4-trifluoromethyl)phenyl-4H-pyrido[1,2-a]pyrimidin-4-one] are 23.1% and 18.7%.
In the same order, the values of `COc1cccc(/C=C/c2nc3ccccn3c(=O)c2-c2cccc(C(F)(F)F)c2)c1OC1CCCC1` [Example 22, 2-{(E)-2-[(2-Cyclopentyloxy-3-methoxy)phenyl]vinyl}-3-(3-trifluoromethyl)phenyl-4H-pyrido[1,2-a]pyrimidin-4-one] are 22.7% and 34.6%.
The matching figures for `COc1cccc(/C=C/c2nc3ccccn3c(=O)c2-c2ccccc2)c1OCC1CC1` [Example 16, 2-{(E)-2-[2-(Cyclopropylmethoxy)-3-methoxyphenyl]vinyl}-3-phenyl-4H-pyrido[1,2-a]-pyrimidin-4-one]: 33.8% and 79.8%.
`CCCCOc1c(/C=C/c2nc3ccccn3c(=O)c2-c2ccc(OC(F)(F)F)cc2)cccc1OC` [Example 9, 2-[(E)-2-[2-Butoxy-3-methoxyphenyl)vinyl]-3-[4-(trifluoromethoxy)phenyl]-4H-pyrido-[1,2-a]pyrimidin-4-one]: the inhibition at 1 µM was 74.6% and the IC50 is 500 to 1000 nM. Also, for the setting “10.0 μM test compound”, the inhibition at 10 µM came out at 89%.
For `COc1cccc(/C=C/c2nc3ccccn3c(=O)c2-c2ccc(C(F)(F)F)cc2)c1OCCN(C)C` [Example 15, 2-[(E)-2-{2-[2-(Dimethylamino)ethoxy]-3-methoxyphenyl}vinyl]-3-(4-trifluoromethylphenyl)-4H-pyrido[1,2-a]pyrimidin-4-one hydrochloride], the inhibition at 1 µM was determined as 0%. In addition, where the note is “10.0 μM test compound”, the inhibition at 10 µM was determined as 31.7%.
`COc1cccc(/C=C/c2nc3ccccn3c(=O)c2-c2ccc(OC(F)(F)F)cc2)c1OCC1CC1` [Example 18]: the inhibition at 1 µM amounted to 79.5% and the IC50 was less than 500 nM. Besides, the inhibition at 10 µM (10.0 μM test compound) is 93.5%.
For the compound `O=c1c(-c2ccc(C(F)(F)F)cc2)c(/C=C/c2cccc3c2OCO3)nc2ccccn12` [Example 4, 2-[(E)-2-(1,3-Benzodioxol-4-yl)vinyl]-3-[4-(trifluoromethyl)phenyl]-4H-pyrido[1,2-a]pyrimidin-4-one], the inhibition at 1 µM was found to be 25.3%. The inhibition at 10 µM (10.0 μM test compound) came to 74%.
For the compound `COc1cccc(/C=C/c2nc3ccccn3c(=O)c2-c2ccc(NC(C)=O)cc2)c1OC1CCCC1` [Example 32, N-(4-{2-[(E)-2-(2-Cyclopentyloxy-3-methoxy)phenylvinyl]-4-Oxo-4H-pyrido[1,2-a]pyrimidin-3-yl}phenyl)acetamide], the inhibition at 1 µM came to 34.2%. Moreover, the inhibition at 10 µM (10.0 μM test compound) turned out to be 89.6%.
The matching figures for `COc1cccc(/C=C/c2nc3c(OC)cccn3c(=O)c2-c2ccc(C#N)cc2)c1OC1CCCC1` [Example 41, 4-{2-[(E)-2-(2-Cyclopentyloxy-3-methoxyphenyl)vinyl]-9-methoxy-4-oxo-4H-pyrido[1,2-a]pyrimidin-3-yl}benzonitrile]: 54.8% and 87.6%.
On to `COc1cccc(/C=C/c2nc3ccccn3c(=O)c2-c2ccc(C#N)cc2)c1OC1CCCC1` [Example 28, 4-{2-[(E)-2-(2-Cyclopentyloxy-3-methoxyphenyl)vinyl]-4-oxo-4H-pyrido[1,2-a]-pyrimidin-3-yl}benzonitrile], for which the “Percentage inhibition at 1.0 μM” value is 83.5% and the IC50 is less than 500 nM. Further, for the setting “10.0 μM test compound”, the “Percentage inhibition at 10.0 μM” value was determined as 94.7%.
On to `COc1cccc(/C=C/c2nc3ccccn3c(=O)c2-c2ccc(C(C)=O)cc2)c1OC1CCCC1` [Example 33, 3-(4-Acetylphenyl)-2-[(E)-2-(2-cyclopentyloxy-3-methoxy)phenylvinyl]-4H-pyrido[1,2-a]pyrimidin-4-one], for which the inhibition at 1 µM is 78% and the IC50 was less than 500 nM. Besides, for the setting “10.0 μM test compound”, the inhibition at 10 µM amounted to 94.3%.
Take `CCCCOc1c(/C=C/c2nc3ccccn3c(=O)c2-c2ccc(C#N)cc2)cccc1OC` [Example 10]: the inhibition at 1 µM worked out at 82.8%. The inhibition at 10 µM (10.0 μM test compound) came to 100%.
As to `O=c1c(-c2ccc(C(F)(F)F)cc2)c(/C=C/c2cccnc2)nc2ccccn12` [Example 2, 2-{(E)-2-(Pyridin-3-yl)vinyl}-3-(4-trifluoromethyl)phenyl-4H-pyrido[1,2-a]pyrimidin-4-one], the inhibition at 1 µM amounted to 5.7%. The inhibition at 10 µM (10.0 μM test compound) came out at 11.2%.
As to `COc1cccc(/C=C/c2nc3ccccn3c(=O)c2-c2ccc(C#N)cc2)c1OC1CCCC1` [Example 5, 4-{2-[(E)-2-[2-(Cyclopentyloxy)-3-methoxyphenyl)vinyl]-4-oxo-4H-pyrido[1,2-a]pyrimidin-3-yl}benzonitrile], the “Percentage inhibition at 1.0 μM” value was found to be 41.6%. Also, the inhibition at 10 µM (10.0 μM test compound) was 76.2%.
With `COc1cccc(/C=C/c2nc3ccccn3c(=O)c2-c2ccc([N+](=O)[O-])cc2)c1OC1CCCC1` [Example 30, 2-{(E)-2-[(2-Cyclopentyloxy)-3-methoxyphenyl]vinyl}-3-(4-nitro)phenyl-4H-pyrido[1,2-a]pyrimidin-4-one], the inhibition at 1 µM is 52%. Moreover, the inhibition at 10 µM (10.0 μM test compound) amounted to 76.4%.
Consider `CCCOc1c(/C=C/c2nc3ccccn3c(=O)c2-c2ccc(C#N)cc2)cccc1OC` [Example 7], for which the inhibition at 1 µM came out at 77.9%. In addition, under “10.0 μM test compound”, the inhibition at 10 µM is 98.9%.
